Measured values: patent publication US7504117B2, “Extract of Nelumbinis Semen for the treatment of depression” (Purimed Co., Ltd., priority 2003, dated 2009)

Legend:
Assay type in all cases: in vivo
[1] = system: CREB, BDNF and trkB genes; assay: Oligonucleotide microarray gene expression in cerebral frontal cortex; conditions: depression-induced animal
Source text: Total RNA was isolated from the cerebral frontal cortex, and double-stranded cDNA was synthesized using the isolated RNA and an oligo (dT) 24-T7 primer. cRNA was synthesized by in vitro transcription using the synthesized cDNA, and was biotin-labeled and applied to an oligonucleotide microarray to determine gene expression patterns in each test group.

WBC = WBC counting in rat blood (volume, conductivity, light scattering)
Description: Thirdly, changes in WBC cell number, which is a representative marker to determine whether the immune suppression has been overcome, according to administration of the Nelumbinis Semen extract, was examined, as follows. After blood samples were collected from rats, cell volume, conductivity and light scattering were measured.
Cell volume was measured according to the Coulter Principle, which is universally recognized as a reference method for sizing of volumes. An aperture between two electrodes is placed in a cell flow, and direct current flows between the electrodes. When WBC maintained at nearly natural states passes through the aperture, electrical resistance to the direct current flow increases, thus generating a voltage pulse being in proportion to cell volumes. The size of the pulse is one of the distinct features allowing determination of the type of WBC. However, to distinguish between two types of cells with similar size, a different phenotype allowing the distinction of two types of cells should be measured. For example, mature basophils and small lymphocytes are about 9-12 jjm in diameter, and immature prolymphocytes and mature neutrophils are 12-14 μm in diameter. Different types of cells with similar size are difficult to determine based on only their size, and thus, in this case, conductivity and light scattering are simultaneously measured. […]

lymphocytes = assay: Lymphocyte cell number in rat blood (automatic analyzer)
Source text: Fourthly, changes in cell number of lymphocytes, which is a representative marker to determine whether the immune suppression has been overcome, according to administration of the Nelumbinis Semen extract, was examined as follows. After blood samples were collected from rats, changes in lymphocyte cell number were examined by the following method.
When diluted blood corpuscles are suspended in an electrolyte solution (Isoton sol.) that is a separate […], the electrolyte suspension of particles is suctioned for 4 sec through an aperture with a predetermined size. The aperture is placed between an internal electrode and an external electrode, and a current flows between the electrodes. When particles pass through the aperture between the two electrodes, resistance increases while voltage decreases. The difference between decreased voltage and ground voltage is expressed as height by a threshold circuit. The number of pulses indicates the number of particles, and the amplitude of pulses is in proportion to the volume of corpulscles.
2. Assay Method: Automatic Analyzer
3. Machine Used: ADVIA120, Bayer, USA

IL-2 = assay: Blood IL-2 concentration (luminometric immunoassay) in rats; conditions: rat blood
Description: (1) 100 μl of assay diluent QD6-23 were aliquotted onto a microplate strip;
(2) 50 μl of each sample and a standard were aliquotted onto the strip;
(3) the strip was incubated with shaking at room temperature for 2 hrs;
(4) the strip was washed four times;
(5) 200 μl of an IL-2 conjugate was aliquotted onto the strip, and the strip was incubated with shaking at room temperature for 3 hrs;
(6) 200 μl of a substrate (luminol+hydrogen peroxide) was aliquotted onto the strip, and the strip was incubated at room temperature for 20-40 min;
(7) emitted light was measured using a luminometer; and
(8) IL-2 concentrations were determined using a standard quantitative curve.

cortisol = assay: Urinary cortisol concentration (125I-cortisol assay) in rats; conditions: rat urine
Description: First, changes in concentrations of cortisol, which is a representative marker to determine whether the immune suppression has been overcome, according to administration of the Nelumbinis Semen extract were examined, as follows. After urine samples were collected from rats,
(1) 1.0 ml of urine was placed into a tube with a cap, 2.0 ml dichloromethane was added to the tube, and the tube was covered with the cap with caution;
(2) the mixture was vortexed for 5-10 min;
(3) the mixture was centrifuged at 1500×g (rpm), the upper layer was aspirated, and 50 μl of the lower layer were aliquotted into coated tubes;
(4) samples were evaporated for dryness.
Urinary cortisol concentrations were measured as follows.
(1) The coated tubes were individually labeled with NSB, Std (A-F), a control (CON6 No. 5) and sample numbers (for NSB, a green tube was used).
(2) 25 μl of each of NSB, Std(A-F), a control (CON6 No. 5) and samples was added to the corresponding tube (free cortisol was added to the completely dried coated tube, and 25 μl of Std. A was added to the NSB tube).
(3) 1.0 ml of ^125I-cortisol was added to the tubes, followed by mixing.
(4) The tubes were incubated in a water bath at 37° C. for 45 min and aspirated.
(5) After the content of the tubes was completely aspirated, radioactivity was measured for at least 1 min using a […].

[2] = system: CREB, BDNF and trkB proteins; assay: Western blotting of CREB, BDNF and trkB proteins in rat cerebral frontal cortex
Description: Thirdly, an increase in the antidepressive markers, CREB, BDNF and trkB proteins, was examined in the rat cerebral frontal cortex by Western blotting, as follows. A behavioral test in rats was carried out for a period of three weeks, and the rats were administered with each drug. The brain frontal cortex was excised and centrifuged, and the supernatant was recovered. Each sample was mixed with a SDS-PAGE sample buffer to reduce proteins and boiled to denature proteins. Samples were loaded onto a SDS-PAGE (sodium dodecyl sulfate poly acrylamide gel electrophoresis) gel and run at 100-200 V for about 1-2 hrs. The SDS-PAGE gel was transferred onto a PVDF or nitrocellulose membrane by electro-transferation. The membrane was incubated with a primary antibody for a target protein, washed and incubated with a secondary antibody. Then, the target protein was detected by an enhanced chemiluminescent method.

[3] = system: 5-HT and NE neurotransmitters; assay: 5-HT and NE levels in chronic CMS model by microdialysis and HPLC-ECD
Description: Also, according to a biochemical method, the therapeutic efficacy of a candidate drug was primarily examined by measuring changes in 5-HT and Norepinephrine (NE) levels in a chronic CMS model by microdialysis and HPLC-ECD. Catecholamine content was measured using an HPLC system equipped with an electrochemical detector. A mobile phase containing 0.05 M monobasic sodium phosphate, 0.1 N sodium acetic acetate and 1% methanol was adjusted to pH 4.4 with a phosphate buffer for HPLC. […] was composed of a Supelcosil LC-8-DB 3-μm column (150×4.6 mm, Supelco, Bellefonte, Pa.) protected by an LC-18 guard column.

[4] = system: CREB, BDNF and trkB proteins; assay: 2-DE of CREB, BDNF and trkB proteins in rat cerebral frontal cortex
Description: Fourthly, an increase in the antidepressive markers, CREB, BDNF and trkB proteins, was examined in the rat cerebral frontal cortex by 2-DE, as follows. A behavioral test in rats was carried out for a period of three weeks, and the rats were administered with each drug. The brain frontal cortex was excised and centrifuged, and the supernatant was recovered. Each sample was mixed with an IEF sample buffer and loaded onto an IEF gel. Proteins were separated according to isoelectric point by isoelectric focusing (IEF) in the first dimension and according to molecular weight by SDS-PAGE at 100-200 V for about 1-2 hrs in the second dimension. The gel was stained by a Gel-Code Blue staining method and evaluated for elevated or newly emerged proteins by the antidepressive substances. The elevated or newly emerged proteins by the antidepressive substances were subjected to mass spectrometry.

CNCCC(Oc1ccc(C(F)(F)F)cc1)c1ccccc1 (stereo not drawn) [Prozac, fluoxetine]
expression level of BDNF gene [1]: significantly increase
expression level of CREB gene [1]: significantly increase
expression level of trkB gene [1]: significantly increase
cell number of WBC (WBC): levels similar to a normal group
cell number of lymphocytes (lymphocytes): levels similar to a normal group
IL-2 concentrations (IL-2): levels similar to a normal group
cortisol concentrations (cortisol): levels similar to a normal group
protein level of BDNF [2]: significantly increase
protein level of CREB [2]: significantly increase
protein level of trkB [2]: significantly increase
level of 5-HT [3]: significantly increase
level of NE [3]: significantly increase
protein level of BDNF [4]: significantly increase
protein level of CREB [4]: significantly increase
protein level of trkB [4]: significantly increase
